Results: ChEMBL document CHEMBL1139945, “Synthesis and biological evaluation of an 123I-labeled bicyclic nucleoside analogue (BCNA) as potential SPECT tracer for VZV-tk reporter gene imaging” (Bioorg Med Chem Lett, 2007)

Molecular target: T1, Thymidine kinase (Varicella-zoster virus (strain Dumas) (HHV-3) (Human herpesvirus 3), UniProt P09250)
T1 sequence (P09250 whole entry): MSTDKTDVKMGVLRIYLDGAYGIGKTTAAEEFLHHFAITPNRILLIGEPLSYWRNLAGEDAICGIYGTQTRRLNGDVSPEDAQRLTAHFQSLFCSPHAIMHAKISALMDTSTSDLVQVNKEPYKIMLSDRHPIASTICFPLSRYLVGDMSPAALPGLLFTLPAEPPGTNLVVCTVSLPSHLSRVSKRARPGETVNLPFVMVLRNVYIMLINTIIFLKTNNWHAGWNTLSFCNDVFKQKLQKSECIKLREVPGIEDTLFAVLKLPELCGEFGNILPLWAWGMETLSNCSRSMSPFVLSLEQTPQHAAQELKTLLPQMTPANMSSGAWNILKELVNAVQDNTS
Assay: Inhibition of VZV thymidine kinase
Set-up: species or system Human alphaherpesvirus 3

With `O=c1nc2oc(-c3ccc(I)c(O)c3)cc2cn1[C@H]1C[C@H](O)[C@@H](CO)O1` the IC50 was 4.2 µM.
Work on `O=c1nc2oc(-c3cccc(O)c3)cc2cn1[C@H]1C[C@H](O)[C@@H](CO)O1` yielded an IC50 of 2.6 µM.
